Data as given in PubChem BioAssay AID1963827 (Molecular Pharmacology Branch, DTP, NCI, 2024).

Test system: 994946-033-R-J1-PDC complex spheroid viability
Assay: Anticancer human tumor 994946-033-R-J1-PDC patient-derived melanoma cell line growth inhibition [POLQ]
Settings: for IC50: curve of first compound; for viability, T/C: stronger effect = lower value
Procedure, shortened: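 PDC + HUVEC + MSC complex spheroids; POLQ inhibitors ± partner drugs; top conc. at/near clinical Cmax, else 10 microM (SN-38 1 microM), half-log dilutions; 37 degrees C, 5% CO2.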

[1] = second compound 0.0316 µM, first compound 0.0316 µM
[2] = second compound 0.0316 µM, first compound 0.1 µM
[3] = second compound 0.0316 µM, first compound 0.316 µM
[4] = second compound 0.0316 µM, first compound 1 µM
[5] = second compound 0.0316 µM, first compound 3.16 µM
[6] = second compound 0.0316 µM, first compound 10 µM
[7] = second compound 0.1 µM, first compound 0.0316 µM
[8] = second compound 0.1 µM, first compound 0.1 µM
[9] = second compound 0.1 µM, first compound 0.316 µM
[10] = second compound 0.1 µM, first compound 1 µM
[11] = second compound 0.1 µM, first compound 3.16 µM
[12] = second compound 0.1 µM, first compound 10 µM
[13] = second compound 0.316 µM, first compound 0.0316 µM
[14] = second compound 0.316 µM, first compound 0.1 µM
[15] = second compound 0.316 µM, first compound 0.316 µM
[16] = second compound 0.316 µM, first compound 1 µM
[17] = second compound 0.316 µM, first compound 3.16 µM
[18] = second compound 0.316 µM, first compound 10 µM
[19] = second compound 1 µM, first compound 0.0316 µM
[20] = second compound 1 µM, first compound 0.1 µM
[21] = second compound 1 µM, first compound 0.316 µM
[22] = second compound 1 µM, first compound 1 µM
[23] = second compound 1 µM, first compound 3.16 µM
[24] = second compound 1 µM, first compound 10 µM
[25] = second compound 3.16 µM, first compound 0.0316 µM
[26] = second compound 3.16 µM, first compound 0.1 µM
[27] = second compound 3.16 µM, first compound 0.316 µM
[28] = second compound 3.16 µM, first compound 1 µM
[29] = second compound 3.16 µM, first compound 3.16 µM
[30] = second compound 3.16 µM, first compound 10 µM
[31] = second compound 10 µM, first compound 0.0316 µM
[32] = second compound 10 µM, first compound 0.1 µM
[33] = second compound 10 µM, first compound 0.316 µM
[34] = second compound 10 µM, first compound 1 µM
[35] = second compound 10 µM, first compound 3.16 µM
[36] = second compound 10 µM, first compound 10 µM
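Note: spheroids exposed to drugs for 7 days.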
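Throughout, for viability, T/C: 100% = DMSO vehicle treated spheroids.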

In the case of `CC1COCCN1c1cc(C2(S(C)(=N)=O)CC2)nc(-c2ccnc3[nH]ccc23)n1` (stereo unspecified) + Cc1cccc(N(C)C(=O)C2C(O)CCN2c2nc(C)cc(C(F)(F)F)c2C#N)c1, the IC50 (second compound 0.0316 µM) is reported as over 10 µM, the IC50 (second compound 0.1 µM) is reported as 4.26 µM and the IC50 (second compound 0.316 µM) is reported as 4.2 µM. It also gave an IC50 (second compound 1 µM) of 1.87 µM, an IC50 (second compound 3.16 µM) of over 10 µM and an IC50 (second compound 10 µM) of 6.24 µM. The viability, T/C [1] was 103%, the viability, T/C [2] was 111% and the viability, T/C [3] was 112%. It also gave a viability, T/C [4] of 61.2%, a viability, T/C [5] of 59.8% and a viability, T/C [6] of 46.8%. For the same molecule, the viability, T/C [7] was 71.6%, the viability, T/C [8] was 113% and the viability, T/C [9] was 109%. For the same molecule, the viability, T/C [10] was 82.2%, the viability, T/C [11] was 58.8% and the viability, T/C [12] was 28.4%. For the same molecule, the viability, T/C [13] was 110%, the viability, T/C [14] was 117% and the viability, T/C [15] was 104%. For the same molecule, the viability, T/C [16] was 78.8%, the viability, T/C [17] was 48.8% and the viability, T/C [18] was 48.4%. It also gave a viability, T/C [19] of 101%, a viability, T/C [20] of 92% and a viability, T/C [21] of 76.2%. It also gave a viability, T/C [22] of 64.6%, a viability, T/C [23] of 36.8% and a viability, T/C [24] of 33.7%. It also gave a viability, T/C [25] of 94.5%, a viability, T/C [26] of 110% and a viability, T/C [27] of 97.5%. The viability, T/C [28] was 53.5%, the viability, T/C [29] was 53.2% and the viability, T/C [30] was 52.8%. It also gave a viability, T/C [31] of 96.5%, a viability, T/C [32] of 103% and a viability, T/C [33] of 92.2%. For the same molecule, the viability, T/C [34] was 75.1%, the viability, T/C [35] was 64.3% and the viability, T/C [36] was 41.3%.

`CC(C)n1c(=O)n(C)c2cnc3cc(F)c(-c4ccc(OCCCN5CCCCC5)nc4)cc3c21` + Nc1ccc(C#CCN(C(=O)Cc2ncc(C(F)(F)F)cc2C(F)(F)F)c2ccc(F)cc2)nn1 showed an IC50 (second compound 0.0316 µM) of over 10 µM, an IC50 (second compound 0.1 µM) of over 10 µM and an IC50 (second compound 0.316 µM) of over 10 µM. It also gave an IC50 (second compound 1 µM) of 8.97 µM, an IC50 (second compound 3.16 µM) of 8.25 µM and an IC50 (second compound 10 µM) of over 10 µM. The viability, T/C [1] was 82.2%, the viability, T/C [2] was 103% and the viability, T/C [3] was 80.6%. It also gave a viability, T/C [4] of 98.5%, a viability, T/C [5] of 83.5% and a viability, T/C [6] of 66.4%. The viability, T/C [7] was 113%, the viability, T/C [8] was 95.3% and the viability, T/C [9] was 52.7%. It also gave a viability, T/C [10] of 84.7%, a viability, T/C [11] of 77.5% and a viability, T/C [12] of 67.5%. For the same molecule, the viability, T/C [13] was 88.9%, the viability, T/C [14] was 80.9% and the viability, T/C [15] was 94.7%. For the same molecule, the viability, T/C [16] was 101%, the viability, T/C [17] was 68.9% and the viability, T/C [18] was 59.6%. For the same molecule, the viability, T/C [19] was 76.5%, the viability, T/C [20] was 103% and the viability, T/C [21] was 98%. The viability, T/C [22] was 88.8%, the viability, T/C [23] was 93.6% and the viability, T/C [24] was 45.6%. For the same molecule, the viability, T/C [25] was 96.6%, the viability, T/C [26] was 97.7% and the viability, T/C [27] was 97.6%. It also gave a viability, T/C [28] of 115%, a viability, T/C [29] of 85% and a viability, T/C [30] of 43%. The viability, T/C [31] was 103%, the viability, T/C [32] was 67.7% and the viability, T/C [33] was 74.4%. It also gave a viability, T/C [34] of 82%, a viability, T/C [35] of 87.9% and a viability, T/C [36] of 70.8%.

Molecule `CNCc1ccc(-c2[nH]c3cc(F)cc4c3c2CCNC4=O)cc1` + Cc1cccc(N(C)C(=O)C2C(O)CCN2c2nc(C)cc(C(F)(F)F)c2C#N)c1 has an IC50 (second compound 0.0316 µM) of over 10 µM, an IC50 (second compound 0.1 µM) of over 10 µM and an IC50 (second compound 0.316 µM) of over 10 µM. For the same molecule, the IC50 (second compound 1 µM) was over 10 µM, the IC50 (second compound 3.16 µM) was over 10 µM and the IC50 (second compound 10 µM) was over 10 µM. The viability, T/C [1] was 88.4%, the viability, T/C [2] was 103% and the viability, T/C [3] was 132%. It also gave a viability, T/C [4] of 77.5%, a viability, T/C [5] of 94.8% and a viability, T/C [6] of 78.8%. The viability, T/C [7] was 85.5%, the viability, T/C [8] was 117% and the viability, T/C [9] was 102%. It also gave a viability, T/C [10] of 81.4%, a viability, T/C [11] of 92% and a viability, T/C [12] of 92.7%. For the same molecule, the viability, T/C [13] was 113%, the viability, T/C [14] was 115% and the viability, T/C [15] was 90.9%. It also gave a viability, T/C [16] of 78.8%, a viability, T/C [17] of 92.8% and a viability, T/C [18] of 106%. It also gave a viability, T/C [19] of 105%, a viability, T/C [20] of 101% and a viability, T/C [21] of 89.9%. It also gave a viability, T/C [22] of 73.1%, a viability, T/C [23] of 112% and a viability, T/C [24] of 104%. The viability, T/C [25] was 107%, the viability, T/C [26] was 90.5% and the viability, T/C [27] was 109%. It also gave a viability, T/C [28] of 100%, a viability, T/C [29] of 109% and a viability, T/C [30] of 89.4%. The viability, T/C [31] was 103%, the viability, T/C [32] was 79% and the viability, T/C [33] was 118%. For the same molecule, the viability, T/C [34] was 91.2%, the viability, T/C [35] was 86.8% and the viability, T/C [36] was 83.2%.
